The subject of assay [1] is methicillin-resistant S. aureus ATCC 33591 (MRSA). The assay can be described thus: Antimicrobial assay (OD600 growth, CLSI microdilution), MRSA. Format: cell-based, Staphyloccocus aureus. The settings on record: Staphylococcus aureus, 22 h, read-out: IC50 MRSA. Here is the method:
(§1) The antimicrobial activities of 1 and 2 were evaluated against a panel of pathogens. For comparison, three known polyether ionophore standards were selected and tested in parallel. […] Furthermore, salinomycin and monensin are currently approved and marketed as antibiotics and anticoccidial agents for cattle and poultry. The compounds were each tested against the Gram-positive pathogens methicillin-resistant Staphyloccocus aureus (MRSA), vancomycin resistant Enterococcus faecium (VRE) and Staphylococcus warneri, Gram-negative pathogens Pseudomonas aeruginosa and Proteus vulgaris, and the yeast Candida albicans. No activity was observed against P. aeruginosa, P. vulgaris or C. albicans at the highest concentration tested (128 μg/mL).
(§2) The antimicrobial activities of 1–5 were evaluated using a panel of human pathogens including methicillin-resistant S. aureus ATCC 33591 (MRSA), vancomycin resistant E. faecium EF379 (VRE), S. warneri ATCC 17917, P. aeruginosa ATCC 14210, P. vulgaris ATCC 12454 and C. albicans ATCC 14035. Assays were performed according to Clinical Laboratory Standards Institute testing standards in a 96-well plate and in triplicate. Compounds 1–5 were dissolved in sterile 20% DMSO and serially diluted creating a range of twelve concentrations between 128 μg/mL and 0.0625 μg/mL. A Thermo Scientific Varioskan Flash plate reader was used to determine cell growth by measuring the optical density at 600 nm at time zero and after incubation at 37 °C for 22 h. The change in OD600 was calculated, percentages of microorganism survival were compared to the vehicle control wells and IC50 values were determined using GraphPad Prism 6.0 (GraphPad Software, San Diego, CA, USA). Control antibiotics used were vancomycin for MRSA and S. warneri, rifampicin for VRE, gentamycin for P. aeruginosa, ciprofloxacin for P. vulgaris and nystatin for C. albicans.

Assay [2] concerns vancomycin resistant E. faecium EF379 (VRE). The assay can be described thus: Antimicrobial assay (OD600 growth, CLSI microdilution), VRE. The class given is cell-based, Enterococcus faecium. The conditions noted are these: 22 h, read-out: IC50 VRE. As for the experimental part:
The antimicrobial activities of 1 and 2 were evaluated against a panel of pathogens. For comparison, three known polyether ionophore standards were selected and tested in parallel. […] The compounds were each tested against the Gram-positive pathogens methicillin-resistant Staphyloccocus aureus (MRSA), vancomycin resistant Enterococcus faecium (VRE) and Staphylococcus warneri, Gram-negative pathogens Pseudomonas aeruginosa and Proteus vulgaris, and the yeast Candida albicans.
as §2, with “Compounds 1–5 were dissolved in sterile 20% DMSO and serially diluted creating a range of twelve concentrations between 128 μg/mL and 0.0625 μg/mL.” left out

Assay [3] concerns S. warneri ATCC 17917. The assay can be described thus: Antimicrobial assay (OD600 growth, CLSI microdilution), S. warneri. Format: cell-based. The conditions noted are these: Staphylococcus warneri, read-out: IC50 S. warneri. As for the experimental part:
as §1, §2

The subject of assay [4] is human breast adenocarcinoma cells (ATCC HTB-26). In words: Cytotoxicity assay (alamarBlue), HTB-26. The class given is cell-based. The settings on record: read-out: IC50 HTB-26. Here is the method: (§3) In light of this information, 1, 2 and the known polyether standards were tested against a human breast adenocarcinoma cell line (HTB-26) and a human invasive breast ductal carcinoma cell line (MCF-7). The compounds were also tested in a healthy human foreskin fibroblast cell line (BJ) and healthy Cercopithecus aethiops kidney epithelial cells (Vero) as an evaluation of cytotoxicity toward healthy cells.
(§4) The cytotoxicities of compounds 1–5 were evaluated using two healthy cell lines—human foreskin fibroblast cells (BJ, ATCC CRL-2522) and Cercopithecus aethiops kidney epithelial cells (Vero, ATCC CCL-81)—as well as two cancer cell lines—human breast adenocarcinoma cells (ATCC HTB-26) and human invasive breast ductal carcinoma cells (ATCC MCF-7). Each cell line was grown and maintained in 15 mL of Eagle’s Minimal Essential Medium in T75 cm^2 cell culture flasks with the exception of HTB-26 cells which were grown in Dulbecco’s Modified Eagle’s Medium/Nutrient Mixture F-12 Ham. All growth media were supplemented with 10% fetal bovine serum, […] penicillin and 0.1 mg/mL streptomycin; the growth medium for MCF-7 cells was also supplemented with 0.01 mg/mL human recombinant insulin. All cell cultures were incubated at 37 °C in a humidified atmosphere with 5% CO2 and culture media was refreshed every two to three days. The cells were not allowed to exceed 80% confluency. At 80% confluency, the cells were counted and diluted in their respective growth medium without addition of antibiotics. Aliquots of 90 μL were added to a microwell plate at a density of 1 × 10^4 cells/well for Vero and HTB-26 cells and 5 × 10^3 cells/well for BJ fibroblast and MCF-7 cells. The plates were incubated at 37 °C with 5% CO2 for 24 h to allow cells to adhere to the plates prior to treatment. The vehicle DMSO was used to dissolve 1 and 2 and was present at a final concentration of 1% in each of the wells. A dilution series was prepared for each cell line using the respective growth medium and 10 μL aliquots of each was added to the respective plate in concentrations ranging from 128 μg/mL to 1 μg/mL in triplicate. Positive control wells contained only the growth medium and DMSO, negative control wells contained the growth medium, DMSO and cells and positive treated controls contained the growth medium, cells and a concentration range of either zinc pyrithione (BJ fibroblast), phenoxyethanol (Vero), or doxorubicin (HTB-26 and MCF-7). All plates were incubated at 37 °C with 5% CO2 for 24 h (BJ fibroblast, Vero) or 72 h (HTB-26, MCF-7). Following incubation, alamarBlue was added to each well at a concentration of 10% (v/v). Fluorescence was measured at 560 nm excitation and 590 nm emission using a Thermo Scientific Varioskan Flash plate reader at time zero and 4 h after treatment with alamarBlue. The change in 590 nm emission reading was used to calculate percent cell viability after each treatment relative to the negative controls. The IC50 values of compounds 1–5 for each cell line were calculated using GraphPad Prism 6.0.

Assay [5] deals with human invasive breast ductal carcinoma cells (ATCC MCF-7). The assay can be described thus: Cytotoxicity assay (alamarBlue), MCF-7. Format: cell-based. The conditions noted are these: read-out: IC50 MCF-7. As for the experimental part:
as §3, §4

The test system of assay [6] is Cercopithecus aethiops kidney epithelial cells (Vero, ATCC CCL-81). The assay can be described thus: Cytotoxicity assay (alamarBlue), Vero. The class given is cell-based. The settings on record: Chlorocebus sabaeus, 24 h, read-out: IC50 Vero. As for the experimental part:
as §3, §4

Assay [7] concerns human foreskin fibroblast cells (BJ, ATCC CRL-2522). The assay can be described thus: Cytotoxicity assay (alamarBlue), BJ. Format: cell-based. The settings on record: 24 h, read-out: IC50 BJ. Here is the method: as §3, §4
Where [8] appears, read: average ± SE (n = 6), 37 °C, OD600.
Where [9] appears, read: ATCC17917, average ± SE (n = 6), 37 °C, 22 h, OD600.
The mark [10] stands for this setting: HTB26, average ± SE (n = 3), 72 h, alamarBlue, breast cancer cell line.
The mark [11] stands for this setting: MCF7, average ± SE (n = 3), 72 h, alamarBlue, breast cancer cell line.
[12] abbreviates: average ± SE (n = 3), alamarBlue, healthy cell line.

Read-outs that look alike come from different tables or passages of the source.

`CO[C@@H]1C[C@@H](C[C@H]2CC[C@H](C)[C@H]([C@@H](C)C(=O)O)O2)O[C@]2(O[C@](C)([C@H]3CC[C@@](C)([C@@H]4O[C@@H]([C@H]5O[C@@](O)(CO)[C@H](C)C[C@@H]5C)C[C@@H]4C)O3)C[C@H]2C)[C@@H]1C` [nigericin (5), nigericin]: the IC50 in assay [1] (setting [8]) came to 0.2 ± 0.1 µM; in assay [2] (setting [8]) it was 0.5 ± 0.1 µM; in assay [3] (setting [9]), 0.3 ± 0.1 µM; in assay [4] (setting [10]), 13 ± 2 µM; in assay [5] (setting [11]), 9 ± 3 µM; in assay [6] (setting [12]), 61 ± 8 µM. Moreover, in assay [7] (setting [12]), the IC50 stood at 221 ± 10 µM.
For `C[C@@H]1C[C@H](C)[C@@](O)(C[C@H]2O[C@@](O)(C[C@@H](O)[C@@H](C)C(=O)[C@](C)(O)[C@@H]3CC[C@@](C)([C@H]4CC[C@@](C)(O)[C@H](C)O4)O3)[C@H](C)C[C@@H]2C)O[C@H]1C[C@H]1CC[C@H](C)[C@@H]([C@@H](C)C(=O)O)O1` [terrosamycin A (1), terrosamycin A], the IC50 in assay [1] is 0.5 ± 0.2 µM; in assay [2] it was 0.58 ± 0.04 µM; in assay [3] (ATCC17917, 22 h), 0.9 ± 0.3 µM; in assay [4] (HTB26, 72 h) it was 10.1 ± 0.6 µM; in assay [5] (MCF7, 72 h), 6 ± 1 µM; in assay [6], 36 ± 6 µM. In assay [7], the IC50 came to 79 ± 5 µM.
On to `CC[C@@H](C(=O)[C@@H](C)[C@@H](O)[C@H](C)[C@@H]1O[C@@H]([C@@H](CC)C(=O)O)CC[C@@H]1C)[C@H]1O[C@]2(C=C[C@@H](O)[C@]3(CC[C@@](C)([C@H]4CC[C@](O)(CC)[C@H](C)O4)O3)O2)[C@H](C)C[C@@H]1C` [salinomycin (3), salinomycin], for which the IC50 was determined as 0.4 ± 0.1 µM in assay [1]; 0.8 ± 0.2 µM in assay [2]; 0.9 ± 0.2 µM in assay [3] (setting [9]); 13 ± 1 µM in assay [4] (setting [10]); 10 ± 3 µM in assay [5] (setting [11]); 78 ± 22 µM in assay [6] (setting [12]). The IC50 in assay [7] (setting [12]) was found to be 196 ± 3 µM.
With `CC[C@@]1([C@@H]2O[C@@H]([C@H]3O[C@@](O)(CO)[C@H](C)C[C@@H]3C)C[C@@H]2C)CC[C@H]([C@]2(C)CC[C@]3(C[C@H](O)[C@@H](C)[C@@H]([C@@H](C)[C@@H](OC)[C@H](C)C(=O)O)O3)O2)O1` [monensin (4), monensin], the IC50 came out at 1.5 ± 0.1 µM in assay [1] (setting [8]); 8 ± 5 µM in assay [2] (setting [8]); 2 ± 0.2 µM in assay [3] (setting [9]); 10 ± 1 µM in assay [4] (setting [10]); 7 ± 2 µM in assay [5] (setting [11]); 10000 µM in assay [6] (setting [12]). The 50% inhibitory concentration (IC50) in assay [7] (setting [12]) amounted to 245 ± 11 µM.
For the molecule `CO[C@@]1(C[C@@H](O)[C@@H](C)C(=O)[C@](C)(O)[C@@H]2CC[C@@](C)([C@H]3CC[C@@](C)(O)[C@H](C)O3)O2)O[C@H](C[C@@]2(OC)O[C@@H](C[C@H]3CC[C@H](C)[C@@H]([C@@H](C)C(=O)O)O3)[C@H](C)C[C@@H]2C)[C@@H](C)C[C@H]1C` [terrosamycin B (2), terrosamycin B], the IC50 in assay [1] is 0.34 ± 0.04 µM; in assay [2], 0.5 ± 0.1 µM; in assay [3] (ATCC17917, 22 h), 0.7 ± 0.1 µM; in assay [4] (HTB26, 72 h) it was 6 ± 1 µM; in assay [5] (MCF7, 72 h) it was 3.9 ± 0.4 µM; in assay [6], 93 ± 4 µM. In addition, the IC50 in assay [7] amounted to 267 ± 28 µM.
In the case of `COc1cccc2c1C(=O)c1c(O)c3c(c(O)c1C2=O)C[C@@](O)(C(=O)CO)C[C@@H]3O[C@H]1C[C@H](N)[C@H](O)[C@H](C)O1` [doxorubicin control, doxorubicin], the IC50 in assay [4] (setting [10]) was 4 ± 2 µM; in assay [5] (setting [11]), 0.8 ± 0.1 µM.
In the case of `CN[C@H](CC(C)C)C(=O)N[C@H]1C(=O)N[C@@H](CC(N)=O)C(=O)N[C@H]2C(=O)N[C@H]3C(=O)N[C@H](C(=O)N[C@H](C(=O)O)c4cc(O)cc(O)c4-c4cc3ccc4O)[C@H](O)c3ccc(c(Cl)c3)Oc3cc2cc(c3O[C@@H]2O[C@H](CO)[C@@H](O)[C@H](O)[C@H]2O[C@H]2C[C@](C)(N)[C@H](O)[C@H](C)O2)Oc2ccc(cc2Cl)[C@H]1O` [vancomycin control, vancomycin], the IC50 was 0.8 ± 0.1 µM in assay [1] and 0.53 ± 0.01 µM in assay [3] (ATCC17917, 22 h).
As for `CO[C@H]1/C=C/O[C@@]2(C)Oc3c(C)c(O)c4c(O)c(c(/C=N/N5CCN(C)CC5)c(O)c4c3C2=O)NC(=O)/C(C)=C\C=C\[C@H](C)[C@H](O)[C@@H](C)[C@@H](O)[C@@H](C)[C@H](OC(C)=O)[C@@H]1C` [rifampicin control, rifampicin], in assay [2] (setting [8]), the half-inhibitory concentration (IC50) worked out at 1.1 ± 0.1 µM.

The values above are taken from PMC6627438, “Terrosamycins A and B, Bioactive Polyether Ionophores from Streptomyces sp. RKND004 from Prince Edward Island Sediment” (Marine Drugs, 2019).
